ChEMBL document CHEMBL2384932, “Radiosynthesis and evaluation of [11C]EMPA as a potential PET tracer for orexin 2 receptors” (Bioorg Med Chem Lett, 2013)
Blank lines part the entries; values can stand above or below the compound they belong to.

Key:
[1] = Drug uptake in baboon blood at 4.49 mCi by PET-MR imaging analysis; assay type: ADME; conditions: papio anubis
Brain [2] = experiment: Drug uptake in baboon brain at 4.49 mCi after 80 mins by PET-MR imaging analysis; assay type: ADME; conditions: papio anubis, in vivo
Kidney = experiment: Drug uptake in Sprague-Dawley rat kidney at 1.0 to 1.2 mCi, iv after 90 mins by PET-CT scan in presence of non radiolabeled ligand EMPA; assay type: ADME, organism-based; conditions: in vivo, 1.5 h
Liver = experiment: Drug uptake in Sprague-Dawley rat liver at 1.0 to 1.2 mCi, iv after 90 mins by PET-CT scan in presence of non radiolabeled ligand EMPA; assay type: ADME, organism-based; conditions: in vivo, 1.5 h
Brain [3] = experiment: Drug uptake in Sprague-Dawley rat brain at 1.0 to 1.2 mCi, iv after 60 mins by PET-CT scan in presence of non radiolabeled ligand EMPA; assay type: ADME, organism-based; conditions: in vivo, 1 h
[4] = Lipophilicity, log D of the compound in phosphate buffer at ph 7.4; assay type: physicochemical
[5] = Fraction unbound in baboon plasma after 10 mins; assay type: ADME, cell-free; conditions: papio anubis
[6] = Ratio of drug level in brain to plasma of ip dosed mouse after 45 mins; assay type: ADME, organism-based; conditions: read-out: BPR
[7] = biological target: T1, Orexin receptor type 2 (Rattus norvegicus) (UniProt P56719); experiment: Binding affinity to rat brain OX2 receptor assessed per mg of protein
T1 sequence (whole entry): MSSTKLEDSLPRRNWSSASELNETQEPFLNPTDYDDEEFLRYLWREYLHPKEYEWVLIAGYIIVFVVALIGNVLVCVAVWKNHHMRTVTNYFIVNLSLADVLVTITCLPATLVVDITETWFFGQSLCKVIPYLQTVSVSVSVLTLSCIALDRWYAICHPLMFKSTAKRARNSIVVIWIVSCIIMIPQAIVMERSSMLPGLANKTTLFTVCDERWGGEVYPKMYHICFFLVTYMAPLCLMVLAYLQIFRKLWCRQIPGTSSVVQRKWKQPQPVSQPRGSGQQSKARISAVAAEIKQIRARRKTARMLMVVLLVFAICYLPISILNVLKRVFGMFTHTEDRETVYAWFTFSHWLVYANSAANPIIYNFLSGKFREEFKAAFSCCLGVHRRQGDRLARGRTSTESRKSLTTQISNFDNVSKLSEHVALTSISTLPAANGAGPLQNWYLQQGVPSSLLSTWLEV

Drug uptake [1]: Active | Drug uptake (Brain [2]): < 0.01% | Drug uptake (Kidney): Active | Drug uptake (Liver): Active | Drug uptake (Brain [3]): < 0.1% | logD [4]: 1.94 | fraction unbound at 10 min [5]: 0.113
SMILES: CCN(Cc1cccnc1)C(=O)CN(c1ccc(O[11CH3])nc1)S(=O)(=O)c1ccccc1C

Kp at 0.75 h [6]: 0.7
SMILES: [3H]c1ccc(CN(CC)C(=O)CN(c2ccc(OC([3H])([3H])[3H])nc2)S(=O)(=O)c2ccccc2C)cn1

Bmax [7]: 6.62 pmol
SMILES: CCN(Cc1cccnc1)C(=O)CN(c1ccc(OC)nc1)S(=O)(=O)c1ccccc1C
